# From US11458138B2 (Novartis AG, priority 2017, dated 2022)
# Legend:
# LATS1 = LATS1 (Homo sapiens (Human), UniProt O95835); assay: LATS1 biochemical assay (Table 1A, Compound Examples 1-290; method in the earlier part)
# [1] = test system: YAP nuclear translocation in HaCaT cells; assay: YAP Translocation Assay (HaCaT Cells); format: cell-based, human; conditions: Homo sapiens, 24 hours
# Method: HaCaT cells were suspended at 0.4×10^6 cells/ml in DMEM+10% FBS with penicillin-streptomycin-glutamine. 50 μl of cells were dispensed into 384-well clear bottom assay plates (20,000 cells/well), and incubated overnight at 37° C. 100 nL test compound was transferred into the assay wells containing HaCaT cells using ECHO (Labcyte). After 24 hours incubation at 37° C., 7 μL of 32% PFA was dispensed into each well and incubated for 45 minutes at room temperature. Plates were washed 3 times with PBS, leaving 20 μL of PBS per well, then treated with 0.1% Triton and 1.5% BSA in PBS for 45 minutes at room temperature. Plates were washed for 5 times with PBS, leaving 20 μL of PBS per well. […] Plates were further washed 3 time with PBS, sealed and imaged on the high-content Opera imaging system (PerkinElmer).
# LATS1, sequence (O95835 whole entry, looked up): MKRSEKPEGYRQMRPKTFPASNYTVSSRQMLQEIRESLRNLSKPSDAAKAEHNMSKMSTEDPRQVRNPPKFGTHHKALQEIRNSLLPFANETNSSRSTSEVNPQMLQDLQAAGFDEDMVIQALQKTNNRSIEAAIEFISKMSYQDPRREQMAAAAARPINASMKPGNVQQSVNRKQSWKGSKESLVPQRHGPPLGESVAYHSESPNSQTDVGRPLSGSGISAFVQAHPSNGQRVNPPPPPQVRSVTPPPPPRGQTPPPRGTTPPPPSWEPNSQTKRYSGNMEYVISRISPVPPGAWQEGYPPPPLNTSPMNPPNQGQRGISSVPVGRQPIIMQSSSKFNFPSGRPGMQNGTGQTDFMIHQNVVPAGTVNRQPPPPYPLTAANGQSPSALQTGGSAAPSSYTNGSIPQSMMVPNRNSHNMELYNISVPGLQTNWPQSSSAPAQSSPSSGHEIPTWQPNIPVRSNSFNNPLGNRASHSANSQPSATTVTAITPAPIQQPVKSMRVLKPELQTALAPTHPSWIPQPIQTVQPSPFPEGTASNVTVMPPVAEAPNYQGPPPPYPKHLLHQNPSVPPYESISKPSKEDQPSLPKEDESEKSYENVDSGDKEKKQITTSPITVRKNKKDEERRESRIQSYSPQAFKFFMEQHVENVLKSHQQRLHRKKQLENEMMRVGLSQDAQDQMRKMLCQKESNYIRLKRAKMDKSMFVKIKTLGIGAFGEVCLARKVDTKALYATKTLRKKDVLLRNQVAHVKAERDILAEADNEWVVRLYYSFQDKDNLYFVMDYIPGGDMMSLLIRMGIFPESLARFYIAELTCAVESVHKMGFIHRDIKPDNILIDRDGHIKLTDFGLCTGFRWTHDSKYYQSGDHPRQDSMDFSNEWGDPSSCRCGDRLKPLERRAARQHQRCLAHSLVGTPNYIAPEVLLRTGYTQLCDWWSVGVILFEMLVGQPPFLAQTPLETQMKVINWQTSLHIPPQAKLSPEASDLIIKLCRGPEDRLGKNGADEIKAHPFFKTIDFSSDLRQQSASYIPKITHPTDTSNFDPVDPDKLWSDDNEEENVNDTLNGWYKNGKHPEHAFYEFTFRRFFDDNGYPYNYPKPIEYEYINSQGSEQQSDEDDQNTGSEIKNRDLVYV
# LATS1, sequence (Q7L9L4 whole entry partner, looked up): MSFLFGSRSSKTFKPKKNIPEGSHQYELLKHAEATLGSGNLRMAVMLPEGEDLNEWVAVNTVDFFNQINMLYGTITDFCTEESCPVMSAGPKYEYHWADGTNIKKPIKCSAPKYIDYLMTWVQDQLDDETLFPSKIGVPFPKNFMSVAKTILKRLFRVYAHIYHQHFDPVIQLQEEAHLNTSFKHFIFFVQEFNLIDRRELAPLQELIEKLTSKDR
Structure (SMILES),IC50 (LATS1),EC50 [1]
"CC(C)(Nc1nc(-c2ccncc2)nc2cnccc12)C(=O)O [Example 34, 2-methyl-2-{[2-(pyridin-4-yl)pyrido[3,4-d]pyrimidin-4-yl]amino}propanoic acid]",95 nM,> 20 µM
"OCCOCCNc1nc(-c2ccncc2)nc2cnccc12 [Example 35, 2-(2-{[2-(pyridin-4-yl)pyrido[3,4-d]pyrimidin-4-yl]amino}ethoxy)ethan-1-ol]",118 nM,> 20 µM
"OCC(CO)(CO)Nc1nc(-c2ccncc2)nc2cnccc12 [Example 36, 2-(hydroxymethyl)-2-{[2-(pyridin-4-yl)pyrido[3,4-d]pyrimidin-4-yl]amino}propane-1,3-diol]",199 nM,> 20 µM
"CC(C)(CC(=O)O)NC(=O)CC(C)(C)Nc1nc(-c2ccncc2)nc2cnccc12 [Example 37, 3-methyl-3-(3-methyl-3-{[2-(pyridin-4-yl)pyrido[3,4-d]pyrimidin-4-yl]amino}butanamido) butanoic acid]",233 nM,> 6.67 µM
"CN(C)C1(CNc2nc(-c3ccncc3)nc3cnccc23)CCOCC1 [Example 39, N-{[4-(dimethylamino)oxan-4-yl]methyl}-2-(pyridin-4-yl)pyrido[3,4-d]pyrimidin-4-amine]",244 nM,> 11.6 µM
"CC(C)(Nc1nc(-c2ccncc2)nc2cnccc12)C12CC3CC(CC(C3)C1)C2 [Example 42, N-[2-(adamantan-1-yl)propan-2-yl]-2-(pyridin-4-yl)pyrido[3,4-d]pyrimidin-4-amine]",711 nM,11.6 µM
"CC(C)C(=O)Nc1nc(-c2ccncc2)nc2cnccc12 [Example 43, 2-methyl-N-[2-(pyridin-4-yl)pyrido[3,4-d]pyrimidin-4-yl]propanamide]",> 1970 nM,> 20 µM
"CC(C)S(=O)(=O)Nc1nc(-c2ccncc2)nc2cnccc12 [Example 45, N-[2-(pyridin-4-yl)pyrido[3,4-d]pyrimidin-4-yl]propane-2-sulfonamide]",> 2500 nM,> 20 µM
"COC(=O)[C@H]1C[C@@H](Nc2nc(-c3ccncc3)nc3cnccc23)C1 [Example 54, methyl (1s,3s)-3-{[2-(pyridin-4-yl)pyrido[3,4-d]pyrimidin-4-yl]amino}cyclobutane-1-carboxylate]",78 nM,> 20 µM
"O=C(O)C1CC(Nc2nc(-c3ccncc3)nc3cnccc23)C1 (stereo not drawn) [Example 57, (1s,3s)-3-{[2-(pyridin-4-yl)pyrido[3,4-d]pyrimidin-4-yl]amino}cyclobutane-1-carboxylic acid]",1440 nM,> 20 µM
"Cc1ccc(Nc2nc(-c3ccncc3)nc3cnccc23)cc1 [Example 90, N-(4-methylphenyl)-2-(pyridin-4-yl)pyrido[3,4-d]pyrimidin-4-amine]",126 nM,> 20 µM
"O=C(O)CCCNc1nc(-c2ccncc2)nc2cnccc12 [Example 97, 4-{[2-(pyridin-4-yl)pyrido[3,4-d]pyrimidin-4-yl]amino}butanoic acid]",–,> 20 µM
"CC(Nc1nc(-c2ccncc2)nc2cnccc12)c1ccccc1 (stereo not drawn) [Example 98, N-(1-phenylethyl)-2-(pyridin-4-yl)pyrido[3,4-d]pyrimidin-4-amine]",1350 nM,–
"COC(=O)CC1(Nc2nc(-c3ccncc3)nc3cnccc23)CC1 [Example 102, methyl 2-(1-{[2-(pyridin-4-yl)pyrido[3,4-d]pyrimidin-4-yl]amino}cyclopropyl)acetate]",126 nM,–
"CC1(Nc2nc(-c3ccnc(C(F)(F)F)c3)nc3cnccc23)CC1 [Example 150, N-(1-methylcyclopropyl)-2-[2-(trifluoromethyl)pyridin-4-yl]pyrido[3,4-d]pyrimidin-4-amine]",4270 nM,–
"CC1(Nc2nc(-c3ccnc(C#N)c3)nc3cnccc23)CC1 [Example 151, 4-{4-[(1-methylcyclopropyl)amino]pyrido[3,4-d]pyrimidin-2-yl}pyridine-2-carbonitrile]",> 10000 nM,–
"CN(c1nc(-c2ccnn2C)nc2cnccc12)C1(C)CC1 [Example 169, N-methyl-2-(1-methyl-1H-pyrazol-5-yl)-N-(1-methylcyclopropyl)pyrido[3,4-d]pyrimidin-4-amine]",98 nM,–
"OCC1(Nc2nc(-c3cn[nH]c3)nc3cnccc23)CCC1 [Example 191, (1-{[2-(1H-pyrazol-4-yl)pyrido[3,4-d]pyrimidin-4-yl]amino}cyclobutyl)methanol]",189 nM,–
"CC(Nc1nc(-c2ccnn2C)nc2cnccc12)c1ccncc1 (stereo not drawn) [Example 193, 2-(1-methyl-1H-pyrazol-5-yl)-N-[1-(pyridin-4-yl)ethyl]pyrido[3,4-d]pyrimidin-4-amine]",> 10000 nM,–
"CCn1cc(-c2nc(NCC(C)C)c3ccncc3n2)cn1 [Example 195, 2-(1-ethyl-1H-pyrazol-4-yl)-N-(2-methylpropyl)pyrido[3,4-d]pyrimidin-4-amine]",> 10000 nM,–

# The next lines start with results.
IC50 (LATS1),Structure (SMILES),EC50 [1]
30 nM,"CC(C)(COCC(=O)O)Nc1nc(-c2ccncc2)nc2cnccc12 [Example 25, 2-(2-methyl-2-{[2-(pyridin-4-yl)pyrido[3,4-d]pyrimidin-4-yl]amino}propoxy)acetic acid]",> 20 µM
35 nM,"OCCC(Nc1nc(-c2ccncc2)nc2cnccc12)C(F)(F)F (stereo not drawn) [Example 27, 4,4,4-trifluoro-3-{[2-(pyridin-4-yl)pyrido[3,4-d]pyrimidin-4-yl]amino}butan-1-ol]",> 14.4 µM
36 nM,"CC(C)(CS(C)(=O)=O)Nc1nc(-c2ccncc2)nc2cnccc12 [Example 28, N-(1-methanesulfonyl-2-methylpropan-2-yl)-2-(pyridin-4-yl)pyrido[3,4-d]pyrimidin-4-amine]",> 20 µM
36 nM,"C[C@](Nc1nc(-c2ccncc2)nc2cnccc12)(C(=O)O)C(F)(F)F [Example 29, (2S)-3,3,3-trifluoro-2-methyl-2-{[2-(pyridin-4-yl)pyrido[3,4-d]pyrimidin-4-yl]amino}propanoic acid]",> 20 µM
41 nM,"C[C@@](Nc1nc(-c2ccncc2)nc2cnccc12)(C(=O)O)C(F)(F)F [Example 31, (2R)-3,3,3-trifluoro-2-methyl-2-{[2-(pyridin-4-yl)pyrido[3,4-d]pyrimidin-4-yl]amino}propanoic acid]",> 20 µM
40 nM,"CN[C@@H]1CCCC[C@H]1N(C)c1nc(-c2ccncc2)nc2cnccc12 [Example 53, (1R,2R)-1-N,2-N-dimethyl-1-N-[2-(pyridin-4-yl)pyrido[3,4-d]pyrimidin-4-yl]cyclohexane-1,2-diamine]",> 20 µM
1 nM,"CC1(Nc2nc(-c3ccncc3)nc3cnccc23)CCC1 [Example 60, N-(1-methylcyclobutyl)-2-(pyridin-4-yl)pyrido[3,4-d]pyrimidin-4-amine]",0.44 µM
2 nM,"CC(CO)(Nc1nc(-c2ccncc2)nc2cnccc12)C(F)(F)F (stereo not drawn) [Example 67, 3,3,3-trifluoro-2-methyl-2-{[2-(pyridin-4-yl)pyrido[3,4-d]pyrimidin-4-yl]amino}propan-1-ol]",0.685 µM
23 nM,"CC(C)(CN)Nc1nc(-c2cn[nH]c2)nc2cnccc12 [Example 197, N-(1-amino-2-methylpropan-2-yl)-2-(1H-pyrazol-4-yl)pyrido[3,4-d]pyrimidin-4-amine]",–
